Data taken from the supplement of paper PMC7600603.

Key:
DLD1 NRF2-WT [1] = details: 72 h; CellTiter-Glo viability
Summary of the method: (§1)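 Isogenic DLD1 colorectal cancer cells, either NRF2 wild-type or CRISPR gain-of-function, were grown in DMEM with 10% FBS. They were exposed in 384-well plates to library compounds at 5 concentrations spanning a 10,000-fold range. After 72 h, viability was read by CellTiter-Glo on a Pherastar FS reader and normalised to vehicle wells and 100-μM positive-control wells. EC50 and drug sensitivity score (a normalised area under the curve) came from four-parameter logistic dose-response fits.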

DLD1 NRF2-GOF [2] = experiment: TC50 cytotoxicity; higher = less toxic; details: 72 h; CellTox Green cytotoxicity
Summary of the method: (§2)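 After growth in DMEM with 10% FBS, NRF2 wild-type and CRISPR-edited isogenic DLD1 cells were seeded in 384-well plates and given library compounds at 5 concentrations across a 10,000-fold range. Fluorescence from CellTox Green was taken on a Pherastar FS reader after 72 h and normalised against vehicle wells and 100-μM positive-control wells. From logistic dose-response fits of cytotoxicity came the TC50 and the drug sensitivity score, a normalised area under the curve.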

DLD1 NRF2-WT [3] = experiment: TC50 cytotoxicity; higher = less toxic; details: 72 h; CellTox Green cytotoxicity
Summary of the method: as §2

DLD1 NRF2-GOF [4] = experiment: drug sensitivity score (DSS) cytotoxicity (DSS score); higher = more toxic; extreme values may be limits of the assay; details: 72 h; CellTox Green cytotoxicity
Summary of the method: as §2

DLD1 NRF2-WT [5] = experiment: as above; details: 72 h; CellTox Green cytotoxicity
Summary of the method: as §2

DLD1 NRF2-WT [6] = experiment: drug sensitivity score (DSS) viability (DSS score); higher = more sensitive; extreme values may be limits of the assay; details: 72 h; CellTiter-Glo viability
Summary of the method: as §1

DLD1 NRF2-GOF [7] = experiment: as above; details: 72 h; CellTiter-Glo viability
Summary of the method: as §1

Compound	EC50 viability (DLD1 NRF2-WT [1])	TC50 cytotoxicity (DLD1 NRF2-GOF [2])	TC50 cytotoxicity (DLD1 NRF2-WT [3])	drug sensitivity score (DLD1 NRF2-GOF [4])	drug sensitivity score (DLD1 NRF2-WT [5])	drug sensitivity score (DLD1 NRF2-WT [6])	drug sensitivity score (DLD1 NRF2-GOF [7])
CC(C)(C)c1cc(NC(=O)Nc2ccc(Oc3ccnc4[nH]c(=O)cnc34)cc2F)n(-c2ccccc2)n1	3.11 µM	> 25 µM	> 25 µM	0	1.1	9.8	–
CONC(=O)c1ccccc1Nc1cc(Nc2cc(C)nn2C(C)C)ncc1Cl	–	> 1 µM	> 1 µM	0	0	–	1.6
C[C@@H](Oc1cc(-n2cnc3ccc(CN4CCN(C)CC4)cc32)sc1C(N)=O)c1ccccc1C(F)(F)F	0.0033 µM	> 10 µM	> 10 µM	8	2.4	33.6	–
C[C@@H]1CN(CC(=O)Nc2ccc3c(c2)Cc2cccc(-c4cc(=O)cc(N5CCOCC5)o4)c2S3)C[C@H](C)O1	> 25 µM	> 25 µM	> 25 µM	0	0	0	–
C[C@H]1C[C@@H](n2c(Nc3ccc(OC(F)(F)F)cc3)nc3cc(CCC(=O)O)ccc32)CC(C)(C)C1	> 10 µM	> 10 µM	> 10 µM	0	0	0.3	–
Cc1cccc(CC(=O)N2CCc3c2ccc(-c2cn(C)c4ncnc(N)c24)c3F)n1	0.808 µM	> 2.5 µM	> 2.5 µM	0	0	2.5	–
O=C(Nc1ccc2[nH]nc(-c3ccncc3)c2c1)[C@@H]1CCN(CC(=O)N2CCN(c3ccc(-c4ncccn4)cc3)CC2)C1	0.688 µM	> 10 µM	> 10 µM	0	0	6.6	–
COc1cc(OC2CCN(C)CC2)ccc1Nc1ncc2c(n1)n(C1CCCC1)c(=O)n2C [AZ 3146]	1.25 µM	> 10 µM	1.58 µM	1.6	2.5	8	–
O=C(Nc1cc(Oc2cc(F)c(NC(=O)C3(C(=O)Nc4ccc(F)cc4)CC3)cc2F)ccn1)C1CC1 [Altiratinib]	3.43 µM	> 10 µM	> 10 µM	0.2	0.6	5.1	–
CC(=O)OC[C@H]1O[C@@H]([S-])[C@H](OC(C)=O)[C@@H](OC(C)=O)[C@@H]1OC(C)=O.CCP(CC)CC.[Au+] [Auranofin]	0.622 µM	> 2.5 µM	0.818 µM	0	2.3	5.5	–
CNC(=O)c1ccccc1Sc1ccc2c(/C=C/c3ccccn3)n[nH]c2c1 [Axitinib]	3.39 µM	> 10 µM	> 10 µM	0	0.3	2.4	–
CC[C@@H]1C(=O)N(C)c2cnc(Nc3ccc(C(=O)NC4CCN(C)CC4)cc3OC)nc2N1C1CCCC1 [BI 2536]	0.0052 µM	–	0.188 µM	2.3	3.1	21.8	–
COc1c(C)cnc(Cn2cnc3c(Cl)nc(N)nc32)c1C [BIIB021]	0.149 µM	> 10 µM	> 10 µM	0	0	20.6	–
CC[C@H](NC(=O)[C@H](C)NC)C(=O)N1C[C@@H](O)C[C@H]1Cc1c(-c2[nH]c3cc(F)ccc3c2C[C@@H]2C[C@H](O)CN2C(=O)[C@H](CC)NC(=O)[C@H](C)NC)[nH]c2cc(F)ccc12 [Birinapant]	> 1 µM	> 1 µM	> 1 µM	0	0	0.1	–
CC(C)C[C@H](NC(=O)[C@H](Cc1ccccc1)NC(=O)c1cnccn1)B(O)O [Bortezomib]	0.0058 µM	0.0117 µM	0.0057 µM	23.1	27.2	27.1	–
CC1=NN(c2ccc(C(=O)O)cc2)C(=O)C1=Cc1ccc(-c2cc(C)c(C)cc2[N+](=O)[O-])o1 [C646]	5.03 µM	> 25 µM	> 25 µM	0	0	2.8	–
COc1ccc(-c2nc(N3CCOCC3)c3sc(CN(C)c4ncc(C(=O)NO)cn4)cc3n2)cn1 [CUDC-907]	0.0334 µM	0.509 µM	0.105 µM	6.9	14.6	29.8	–
Nc1cc(F)ccc1NC(=O)c1ccc(CNC(=O)/C=C/c2cccnc2)cc1 [Chidamide]	> 10 µM	> 10 µM	> 10 µM	0	0	0.6	–
C=C1C[C@@H]2CC[C@@]34C[C@H]5O[C@H]6[C@@H](O3)[C@H]3O[C@H](CC[C@@H]3O[C@H]6[C@H]5O4)CC(=O)C[C@@H]3[C@@H](OC)[C@@H](C[C@H](O)CN)O[C@H]3C[C@H]3O[C@@H](CC[C@@H]1O2)C[C@@H](C)C3=C [Eribulin]	0.0051 µM	> 1 µM	> 1 µM	4.4	3.3	22.6	–
Cc1ccc(NC(=O)c2ccc(CN3CCN(C)CC3)cc2)cc1Nc1nccc(-c2cccnc2)n1 [Imatinib]	4.5 µM	> 10 µM	> 10 µM	0	0	1.2	–
CC(C)NC[C@@H](C(=O)N1CCN(c2ncnc3c2[C@H](C)C[C@H]3O)CC1)c1ccc(Cl)cc1 [Ipatasertib]	> 10 µM	> 10 µM	> 10 µM	0	0	1.3	–
CCC(C)n1ncn(-c2ccc(N3CCN(c4ccc(OCC5COC(Cn6cncn6)(c6ccc(Cl)cc6Cl)O5)cc4)CC3)cc2)c1=O (centres undefined) [Itraconazole]	> 5 µM	> 5 µM	> 5 µM	0	0	0.4	–

Compound	EC50 viability (DLD1 NRF2-WT [1])	TC50 cytotoxicity (DLD1 NRF2-GOF [2])	TC50 cytotoxicity (DLD1 NRF2-WT [3])	drug sensitivity score (DLD1 NRF2-GOF [4])	drug sensitivity score (DLD1 NRF2-WT [5])	drug sensitivity score (DLD1 NRF2-WT [6])	drug sensitivity score (DLD1 NRF2-GOF [7])
O=C(CCNC(=O)c1ccc(OC(F)(F)F)cc1)N[C@@H]1CCCc2ccccc21 [ML390]	> 50 µM	> 50 µM	> 50 µM	0	0	1.9	–
O=C(Nc1cccc(NC(=O)c2cccc(O)c2O)c1)c1cccc(O)c1O [MST-312]	0.238 µM	> 10 µM	> 10 µM	0	0	10.4	–
C[C@H]1C[C@@H]2[C@H]([C@@H](O)C[C@@]3(C)[C@H]2CC[C@]3(O)C(=O)CO)[C@@]2(C)C=CC(=O)C=C12 [Methylprednisolone]	–	> 10 µM	> 10 µM	0	0	–	2.9
CCCCCCCCCCCCCCCCOP(=O)([O-])OCC[N+](C)(C)C [Miltefosine]	7.67 µM	10.4 µM	7.4 µM	9.7	11	13.1	–
CCS(=O)(=O)Nc1ccc(Oc2ccc(F)cc2F)c(-c2cn(C)c(=O)c3[nH]ccc23)c1 [Mivebresib]	0.102 µM	> 10 µM	> 10 µM	0	0	14.7	–
Nc1ccccc1NC(=O)c1ccc(CNc2nccc(-c3cccnc3)n2)cc1 [Mocetinostat]	3.29 µM	> 10 µM	> 10 µM	0	1.6	4	–
COc1cc2c(cc1OC(C)C)[C@H](c1ccc(Cl)cc1)N(c1ccc(N(C)C[C@H]3CC[C@H](N4CCN(C)C(=O)C4)CC3)cc1)C(=O)C2 [NVP-CGM097]	2.38 µM	> 25 µM	> 25 µM	0	0	3.4	–
CC1(C)CCC(c2ccc(Cl)cc2)=C(CN2CCN(c3ccc(C(=O)NS(=O)(=O)c4ccc(N[C@H](CCN5CCOCC5)CSc5ccccc5)c(S(=O)(=O)C(F)(F)F)c4)cc3)CC2)C1 [Navitoclax]	3.95 µM	1.89 µM	1.55 µM	2.1	4	2.1	–
C=CC(=O)Nc1cccc(Oc2nc(Nc3ccc(N4CCN(C)CC4)cc3)nc3ccsc23)c1 [Olmutinib]	–	> 1 µM	> 1 µM	0	0	2.6	2.8
CCCCCCCCCCCCCCCCCCOP(=O)([O-])OC1CC[N+](C)(C)CC1 [Perifosine]	> 2.5 µM	> 2.5 µM	> 2.5 µM	0.6	0.9	0.3	–
CO[C@H](C(=O)[C@@H](O)[C@@H](C)O)[C@@H]1Cc2cc3cc(O[C@H]4C[C@@H](O[C@H]5C[C@@H](O)[C@H](O)[C@@H](C)O5)[C@@H](O)[C@@H](C)O4)c(C)c(O)c3c(O)c2C(=O)[C@H]1O[C@H]1C[C@@H](O[C@H]2C[C@@H](O[C@H]3C[C@](C)(O)[C@H](O)[C@@H](C)O3)[C@H](O)[C@@H](C)O2)[C@H](O)[C@@H](C)O1 [Plicamycin]	0.119 µM	> 10 µM	> 10 µM	0	1.7	21.8	–
CC[C@H](C)C(=O)O[C@H]1C[C@H](O)C=C2C=C[C@H](C)[C@H](CC[C@@H](O)C[C@@H](O)CC(=O)O)[C@H]21 [Pravastatin]	> 10 µM	> 10 µM	> 10 µM	0	0	0	–
C[C@]12C=CC(=O)C=C1CC[C@@H]1[C@@H]2[C@@H](O)C[C@@]2(C)[C@H]1CC[C@]2(O)C(=O)CO [Prednisolone]	–	> 10 µM	> 10 µM	0	0	–	1
Cc1nc(C(=O)NCC(=O)O)c(O)c2ccc(Oc3ccccc3)cc12 [Roxadustat]	1.69 µM	> 10 µM	> 10 µM	0	0	2.5	–
COc1ccc(CCc2nc3cc(-c4c(C)noc4C)ccc3n2C[C@H](C)N2CCOCC2)cc1Cl [SGC-CBP30]	9.91 µM	> 25 µM	> 25 µM	0.2	0.8	2.2	–
CN1CCC(CNc2ccc3ncc(-c4cccc(OC(F)(F)F)c4)n3n2)CC1 [SGI-1776]	3.47 µM	3.14 µM	2.68 µM	3.1	4.5	5	–
CC[C@H](CO)Nc1nc(NCc2ccccc2)c2ncn(C(C)C)c2n1 [Seliciclib]	4.17 µM	> 10 µM	> 10 µM	0	0	1.1	–
COc1cc(Nc2ncc(F)c(Nc3ccc4c(n3)NC(=O)C(C)(C)O4)n2)cc(OC)c1OC [Tamatinib]	> 10 µM	> 10 µM	> 10 µM	0	0	1	–
CC/C(=C(\c1ccccc1)c1ccc(OCCN(C)C)cc1)c1ccccc1 [Tamoxifen]	4.36 µM	> 10 µM	> 10 µM	0	0	2	–
CC(=O)Nc1cccc(-n2c(=O)n(C3CC3)c(=O)c3c(Nc4ccc(I)cc4F)n(C)c(=O)c(C)c32)c1 [Trametinib]	0.037 µM	> 0.25 µM	> 0.25 µM	0	0	3.1	–
C=CC(=O)N1CC/C(=C\c2ccc(F)c([N+](=O)[O-])c2)C(=O)/C(=C/c2ccc(F)c([N+](=O)[O-])c2)C1 [VLX1570]	0.0504 µM	5.34 µM	0.0677 µM	2.7	21.9	27.9	–
CC[C@]1(O)C[C@H]2CN(CCc3c([nH]c4ccccc34)[C@@](C(=O)OC)(c3cc4c(cc3OC)N(C)[C@H]3[C@@](O)(C(=O)OC)[C@H](OC(C)=O)[C@]5(CC)C=CCN6CC[C@]43[C@@H]65)C2)C1 [Vinblastine]	0.0052 µM	> 1 µM	–	3.4	4.1	22.5	–
